Measurements as given in ChEMBL document CHEMBL1136467, “A simple stereoselective synthesis and biological evaluation of FR181157: orally active prostacyclin mimetic” (Bioorg Med Chem Lett, 2003).

Legend:
[1] = Pharmacokinetic property (F) was measured in dog at the dose of 0.032 mg/kg; type: ADME, organism-based, Canis lupus familiaris; parameters: dose 0.032 mg/kg; details: in vivo
[2] = Pharmacokinetic property (Cmax) was measured in dog at the dose of 0.032 mg/kg; type: ADME, organism-based, Canis lupus familiaris; parameters: dose 0.032 mg/kg; details: in vivo
[3] = Pharmacokinetic property (t1/2beta) was measured in dog at the dose of 0.032 mg/kg i.v.; type: ADME, organism-based, Canis lupus familiaris; parameters: dose 0.032 mg/kg, route intravenous; details: in vivo, iv, read-out: T1/2 beta (converted)
[4] = Pharmacokinetic property (Tmax) was measured in rat at the dose of 0.32 mg/kg p.o.; type: ADME, organism-based; parameters: dose 0.32 mg/kg, route oral; details: in vivo, po
[5] = Pharmacokinetic property (AUC) was measured in dog at the dose of 0.032 mg/kg p.o.; type: ADME, organism-based, Canis lupus familiaris; parameters: dose 0.032 mg/kg, route oral; details: in vivo, po
[6] = Pharmacokinetic property (CLtot)of the compound was measured in rat at the dose of 0.32 mg/kg i.v.; type: ADME, organism-based; parameters: dose 0.32 mg/kg, route intravenous; details: in vivo, iv, read-out: CLtotal
[7] = Pharmacokinetic property (Tmax) was measured in dog at the dose of 0.032 mg/kg p.o.; type: ADME, organism-based, Canis lupus familiaris; parameters: dose 0.032 mg/kg, route oral; details: in vivo, po
[8] = Pharmacokinetic property (Cmax) was measured in rat at the dose of 0.32 mg/kg p.o.; type: ADME, organism-based; parameters: dose 0.32 mg/kg, route oral; details: in vivo, po
[9] = Pharmacokinetic property (CLtot) was measured in dog at the dose of 0.032 mg/kg i.v.; type: ADME, organism-based, Canis lupus familiaris; parameters: dose 0.032 mg/kg, route intravenous; details: in vivo, iv, read-out: CLtotal
[10] = Pharmacokinetic property (AUC) was measured in rat at the dose of 0.32 mg/kg p.o.; type: ADME, organism-based; parameters: dose 0.32 mg/kg, route oral; details: in vivo, po
[11] = species: Canis familiaris; assay: In vitro inhibition of ADP-induced platelet aggregation using dog platelet rich plasma; type: functional; details: Canis lupus familiaris
[12] = species: Homo sapiens; assay: In vitro inhibition of ADP-induced platelet aggregation using human platelet rich plasma; type: functional
[13] = target: Prostacyclin receptor (Homo sapiens, UniProt P43119); assay: In vitro Prostacyclin (PGI-2) receptor binding assay was determined based on displacement of [3H]iloprost radioligand from cloned human IP receptor
Sequence of Prostacyclin receptor (P43119 whole entry): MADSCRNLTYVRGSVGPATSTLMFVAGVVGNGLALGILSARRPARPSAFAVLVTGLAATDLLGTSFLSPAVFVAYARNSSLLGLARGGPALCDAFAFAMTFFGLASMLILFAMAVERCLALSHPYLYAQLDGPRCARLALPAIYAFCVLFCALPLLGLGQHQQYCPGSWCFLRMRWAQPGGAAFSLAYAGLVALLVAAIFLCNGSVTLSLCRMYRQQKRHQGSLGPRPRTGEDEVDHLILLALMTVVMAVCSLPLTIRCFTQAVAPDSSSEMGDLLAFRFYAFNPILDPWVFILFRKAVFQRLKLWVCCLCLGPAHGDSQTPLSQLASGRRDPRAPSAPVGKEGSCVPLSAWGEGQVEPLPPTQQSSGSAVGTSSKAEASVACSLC

[14] = species: Rattus norvegicus; assay: In vitro inhibition of ADP-induced platelet aggregation using rat platelet rich plasma; type: functional
[15] = Pharmacokinetic property (t1/2beta) was measured in rat at the dose of 0.32 mg/kg i.v.; type: ADME, organism-based; parameters: dose 0.32 mg/kg, route intravenous; details: in vivo, iv, read-out: T1/2 beta (converted)
[16] = Pharmacokinetic property (F) was measured in rat at the dose of 0.32 mg/kg; type: ADME, organism-based; parameters: dose 0.32 mg/kg; details: in vivo

O=C([O-])COc1cccc(C[C@@H]2CCCC=C2c2nc(-c3ccccc3)c(-c3ccccc3)o2)c1.[Na+]
bioavailability [1]: 72%
Cmax [2]: 38.7 ng/mL
half-life [3]: 26 h
Tmax [4]: 0.3 h
AUC [5]: 392 ng·h/mL
clearance [6]: 17.7 mL/min/kg
Tmax [7]: 2.3 h
Cmax [8]: 16.4 ng/mL
clearance [9]: 1.09 mL/min/kg
AUC [10]: 147 ng·h/mL
IC50 [11]: 1300 nM
IC50 [12]: 60 nM
Ki [13]: 54 nM
IC50 [14]: 1200 nM
half-life [15]: 6.6 h
bioavailability [16]: 50%

O=C(O)COc1cccc(CC2=C(c3nc(-c4ccccc4)c(-c4ccccc4)o3)CCCC2)c1
IC50 [12]: 530 nM

O=C(O)COc1cccc(C[C@H]2CCCC=C2c2nc(-c3ccccc3)c(-c3ccccc3)o2)c1
IC50 [12]: 110 nM

CC#CCC(C)[C@H](O)/C=C/[C@@H]1[C@H]2C/C(=C/CCCC(=O)O)C[C@H]2C[C@H]1O (some centres undefined) [ILOPROST]
IC50 [12]: 2.5 nM
